Source: patent US9289400B2, “D3 dopamine receptor agonists to treat dyskinesia in parkinson's disease” (priority 2010, dated 2016)
“And” between values parts separate entries of the source, which are not always exact repeats. Identical values can stand only once. “Also recorded” adds a separate entry of the source.

Columns and labels:
[1] = test system: intrastriatal 6-OHDA lesioned rats; test: Levodopa-induced dyskinesia (AIMs score) in intrastriatal 6-OHDA lesioned rats; assay type: in vivo, rat; details: PBZI 17 mg/kg sc; for effect on levodopa-induced dyskinesia (AIMs score): given 10 minutes before 6 mg/kg levodopa, ES609 20 mg/kg
Protocol: In particular, rats in which unilateral intrastriatal lesion is induced by injection of 6-OHDA (7 μg) at three different sites in the ventrolateral striatum are used. The coordinates for the three injection sites are, in mm: injection site 1: AP: +1.0; ML: −3.0; DV: −5.0; injection site 2: AP: −0.1; ML: −3.7; DV: −5.0; injection site 3: AP: −1.2; ML: −4.5; DV: −5.0. Anterior-posterior (AP) and mediolateral (ML) coordinates are from bregma. The dorso-ventral (DV) coordinates are from dura. The toothbar location is 0.
Seven and half weeks after the lesion, chronic levodopa treatment (6 mg/kg, single dose per day given with 15 mg/kg benserazide) is initiated. Stepping test and AIMs scores are determined on day 1, 8, 10, 17 and 24 after the initiation of chronic levodopa treatment. […] AIMs are scored using a rating scale based on frequency and severity of the dyskinetic symptoms. It should be noted that the rank order of the various AIMs components in terms of frequency and severity in the rat model is: limb>orolingual=axial>>locomotor. This lesion model has been used to test the effect of PBZI on LID (Example 3).
FIG. 13A illustrates the effect of control, PD128907 (a tolerance inducing D2/D3 agonist) and PBZI (a non tolerance inducing D3/D3 agonist) on the total AIMs score (includes locomotor, axial, limb and orolingual) over time of a day 17 (chronic L-DOPA phase) lesioned animal.

D3 dopamine receptor [2] = biological target: T1, D3 dopamine receptor (Homo sapiens (Human), UniProt P35462); test: D3 receptor tolerance and SRT: GIRK response to repeated agonist application in AtT-20 cells; assay type: cell-based; details: AtT-20 cells expressing human D3, 100-300 nM agonist, repeated ~60 s applications
Protocol: To determine whether a compound abolishes the D3 receptor tolerance and SRT, the D3 receptor-activated GIRK response to two consecutive treatments of the lead compound is measured. […] Drug solutions were delivered to cells via a multi-barreled micropipette array. The current responses were normalized to the cell capacitance, to account for variation in cell size.
To identify agonists that might modulate D3 receptor tolerance and SRT properties, ten distinct agonists were screened for their ability to induce tolerance and SRT, using the D3 receptor-GIRK channel signaling pathway as an assay.

D3 dopamine receptor [3] = biological target: T1, D3 dopamine receptor; test: GIRK channel activation, whole cell voltage clamp, AtT-20 cells stably expressing D3; assay type: cell-based; details: for specificity of agonist effect (eticlopride pretreatment / parental cells): D2/D3 antagonist eticlopride (100 nM); for GIRK channel activation: agonist type / EC50: D3; for GIRK channel activation: agonist type: versus full agonist quinpirole; for EC50: GIRK channel activation EC50, AtT-20 cells
Protocol: The activation of the GIRK channels was measured electrophysiologically using whole cell voltage clamp recording (Kuzhikandathil et al., 2004, Mol. Cell. Neurosci. 26:144-155). […]. The adenylyl cyclase inhibition was determined using a commercially available ELISA assay (Westrich & Kuzhikandathil, 2007, Biochim. Biophys. Acta-Mol. Cell. Res. 1773:1747-1758).
. In the initial screen, the ability of 300 nM lead compound to activate G-protein coupled inward rectifier potassium (GIRK) channels (FIG. 1) is measured using whole cell voltage clamp recording. The protocol has been previously used for performing whole cell voltage clamp and measuring agonist-induced GIRK response. […]. The EC50 values for each receptor subtype is determined by fitting the data points using the Hill equation.
AtT-20 mouse pituitary cells were grown in Ham's F10 medium with 5% FBS, 10% heat-inactivated horse serum, 2 mM glutamine and 50 μg/ml gentamicin (Invitrogen, Carlsbad, Calif.). AtT-20 cells stabling expressing the human D2S, D2L, D3, and D4.2 and receptor were maintained in the above F10 culture media supplemented with 500 μg/ml G418 (Invitrogen). For electrophysiological characterization, cells were plated onto glass coverslips coated with 40 μg/ml poly L-lysine (Sigma-Aldrich). […]. Physiol. 115:697-706; Kuzhikandathil et al., 1998, Mol. Cell. Neurosci. 12:390-402; Kuzhikandathil & Bartoszyk, 2006, Neuropharm. 51:873-884; Westrich & Kuzhikandathil, 2007, Biochim. Biophys. Acta-MCR 1773:1747-1758; Kuzhikandathil et al., 2004, Mol. Cell. Neurosci. 26:144-155; Westrich et al., 2010, Biochem. Pharmacol. 79:897-907).
Agonist-activated currents were measured by the whole-cell patch clamp technique in voltage clamp and current clamp mode as described previously (Kuzhikandathil & Oxford, 2000, J. Gen. Physiol. 115:697-706; Kuzhikandathil et al., 1998, Mol. Cell. Neurosci. 12:390-402; Kuzhikandathil & Bartoszyk, 2006, Neuropharm. 51:873-884; Westrich & Kuzhikandathil, 2007, Biochim. Biophys. Acta-MCR 1773:1747-1758; Kuzhikandathil et al., 2004, Mol. Cell. Neurosci. 26:144-155; Westrich et al., 2010, Biochem. Pharmacol. 79:897-907). Drug solutions were delivered to cells via a multi-barreled micropipette array. The current responses were normalized to the cell capacitance, to account for variation in cell size.
To compare the functional effects of the new class of D3 receptor agonists, PBZI (Table 2) and ES609 (Table 3) were tested on AtT-20 cells stably expressing human D3, D2S, D2L or D4.2. […]. The EC50 values of PBZI and ES609 for inhibiting adenylyl cyclase and activating GIRK channels were in the range of 0.2 nM to 30 nM for D3 receptors. […]. […]

T1 sequence (P35462 other isoform, or with tags, fused parts or gaps): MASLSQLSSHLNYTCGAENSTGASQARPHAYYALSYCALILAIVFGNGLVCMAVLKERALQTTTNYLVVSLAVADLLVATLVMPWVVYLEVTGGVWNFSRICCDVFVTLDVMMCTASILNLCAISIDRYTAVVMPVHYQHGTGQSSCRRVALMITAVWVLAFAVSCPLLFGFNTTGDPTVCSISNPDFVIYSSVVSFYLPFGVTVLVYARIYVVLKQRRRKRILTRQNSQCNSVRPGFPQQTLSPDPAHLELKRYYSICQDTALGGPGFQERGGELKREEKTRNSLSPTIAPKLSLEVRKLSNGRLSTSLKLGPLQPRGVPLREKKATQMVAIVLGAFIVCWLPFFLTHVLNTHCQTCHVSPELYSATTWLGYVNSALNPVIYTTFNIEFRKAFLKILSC

| Compound | effect on levodopa-induced dyskinesia (AIMs score) [1] | D3 receptor tolerance and SRT properties (agonist-induced GIRK response) (D3 dopamine receptor [2]) | D3 receptor tolerance and SRT properties (agonist-induced GIRK response) (D3 dopamine receptor [2]; listed as ES 609) | specificity of agonist effect (eticlopride pretreatment / parental cells) (D3 dopamine receptor [3]) | GIRK channel activation Ratio of ES609 to quinpirole response (at 300 nM) (D3 dopamine receptor [3]; D3, 300 nM) | GIRK channel activation: agonist type (D3 dopamine receptor [3]) | GIRK channel activation: agonist type (D3 dopamine receptor [3]; listed as ES0609) | EC50 (D3 dopamine receptor [3]) | dyskinesia induced by the compound itself, before levodopa administration ([1]; PD128907 0.1 mg/kg sc) | D3 receptor tolerance and SRT properties (agonist-induced GIRK response) (D3 dopamine receptor [2]; listed as cis-80H-PBZI) | GIRK channel activation Ratio of PBZI to quinpirole response (at 300 nM) (D3 dopamine receptor [3]; D3, 300 nM) |
| --- | --- | --- | --- | --- | --- | --- | --- | --- | --- | --- | --- |
| CC(N)CCc1ccccc1Cl (stereo not shown) [ES609] | improve levodopa-induced dyskinesia | did not induce tolerance and SRT; also recorded: did not show tolerance and SRT | also abolished D3 receptor tolerance and SRT properties | blocked by pretreatment with the antagonist, eticlopride | 0.86 | full agonist | Full | 30 nM | – | – | – |
| CCCN1CC[C@@H]2c3cc(O)ccc3CC[C@@H]21 [PBZI, (3aS,9bR)-3-propyl-1,2,3a,4,5,9b-hexahydrobenzo[e]indol-8-ol] | reduces AIM scores; also recorded: significantly reduced the AIM score; also recorded: delayed the onset of levodopa induced dyskinesia; also recorded: delayed and reduced the dyskinesia induced by levodopa; also recorded: improve levodopa-induced dyskinesia | does not elicit tolerance and SRT properties; also recorded: abolished both tolerance and SRT properties; also recorded: did not induce tolerance; also recorded: does not induce tolerance and SRT; also recorded: did not show either tolerance or SRT properties; also recorded: completely abolished the receptors' tolerance and SRT properties | – | specific for D3 receptors | – | full agonists and full | – | 30 nM and 29 nM | did not induce dyskinesia | abolished the tolerance property | 1.3 |
